Measured values as given in ChEMBL document CHEMBL1156137, “Synthesis and biological evaluation of 2-amino-7,7-dimethyl 4-substituted-5-oxo-1-(3,4,5-trimethoxy)-1,4,5,6,7,8-hexahydro-quinoline-3-carbonitrile derivatives as potential cytotoxic agents” (Bioorg Med Chem Lett, 2009).

How the values were obtained:
[1] = Cytotoxicity against mouse EAC cells assessed as nonviable cell at 10 ug/mL relative to doxorubicin; format: functional, Ehrlich
[2] = Cytotoxicity against mouse EAC cells assessed as nonviable cell at 50 ug/mL relative to doxorubicin; format: functional, Ehrlich
[3] = Cytotoxicity against mouse EAC cells assessed as nonviable cell at 25 ug/mL relative to doxorubicin; format: functional, Ehrlich
[4] = Cytotoxicity against mouse EAC cells assessed as nonviable cell at 100 ug/mL relative to doxorubicin; format: functional, Ehrlich
[5] = Cytotoxicity against mouse EAC cells; format: functional, cell-based, Ehrlich
[6] = Mus musculus, Ehrlich, read-out: IC50

Compound | Activity [1] [%] | Activity [2] [%] | Activity [3] [%] | Activity [4] [%] | IC50 ([5]; ehrlich) | IC50 [5, 6] [µM]
COc1cc(N2C(N)=C(C#N)C(c3ccccc3O)C3=C2CC(C)(C)CC3=O)cc(OC)c1OC (stereo not given) | 0 | 2 | 0 | 10 | Not Active | 
COc1cc(N2C(N)=C(C#N)C(c3cccc([N+](=O)[O-])c3)C3=C2CC(C)(C)CC3=O)cc(OC)c1OC (stereo not given) | 5 | 30 | 20 | 30 | Not Active | 
COc1cc(N2C(N)=C(C#N)C(c3ccc(OC)c(OC)c3OC)C3=C2CC(C)(C)CC3=O)cc(OC)c1OC (stereo not given) | 20 | 30 | 30 | 40 | Not Active | 
COc1cc(N2C(N)=C(C#N)C(c3ccc(O)cc3)C3=C2CC(C)(C)CC3=O)cc(OC)c1OC (stereo not given) | 10 | 90 | 20 | 100 |  | 75.8
COc1ccc(C2C(C#N)=C(N)N(c3cc(OC)c(OC)c(OC)c3)C3=C2C(=O)CC(C)(C)C3)cc1 (stereo not given) | 0 | 11 | 1 | 15 | Not Active | 
COc1cc(N2C(N)=C(C#N)C(c3c(O)ccc4ccccc34)C3=C2CC(C)(C)CC3=O)cc(OC)c1OC (stereo not given) | 2 | 15 | 10 | 90 |  | 143
COc1cc(N2C(N)=C(C#N)C(c3ccc4c(c3)OCO4)C3=C2CC(C)(C)CC3=O)cc(OC)c1OC (stereo not given) | 10 | 40 | 30 | 40 | Not Active | 
COc1cc(N2C(N)=C(C#N)C(c3ccc(C)o3)C3=C2CC(C)(C)CC3=O)cc(OC)c1OC (stereo not given) | 21 | 41 | 31 | 50 |  | 216
COc1cc(C2C(C#N)=C(N)N(c3cc(OC)c(OC)c(OC)c3)C3=C2C(=O)CC(C)(C)C3)ccc1O (stereo not given) | 10 | 30 | 20 | 40 | Not Active | 
COc1cc(N2C(N)=C(C#N)C(c3ccc(C)cc3)C3=C2CC(C)(C)CC3=O)cc(OC)c1OC (stereo not given) | 30 | 60 | 50 | 90 |  | 52.9
COc1ccccc1C1C(C#N)=C(N)N(c2cc(OC)c(OC)c(OC)c2)C2=C1C(=O)CC(C)(C)C2 (stereo not given) | 30 | 70 | 65 | 100 |  | 26.6
COc1cc(N2C(N)=C(C#N)C(c3ccccc3)C3=C2CC(C)(C)CC3=O)cc(OC)c1OC (stereo not given) | 0 | 8 | 6 | 10 | Not Active | 
COc1cc(N2C(N)=C(C#N)C(c3cccs3)C3=C2CC(C)(C)CC3=O)cc(OC)c1OC (stereo not given) | 5 | 15 | 10 | 20 | Not Active | 
COc1cc(N2C(N)=C(C#N)C(/C=C/c3ccccc3)C3=C2CC(C)(C)CC3=O)cc(OC)c1OC (stereo not given) | 10 | 30 | 30 | 40 | Not Active | 
COc1cccc2c1C(=O)c1c(O)c3c(c(O)c1C2=O)C[C@@](O)(C(=O)CO)C[C@@H]3O[C@H]1C[C@H](N)[C@H](O)[C@H](C)O1 [DOXORUBICIN] | 24 | 68 | 30 | 100 |  | 68.1
COc1cc(N2C(N)=C(C#N)C(c3ccc([N+](=O)[O-])cc3)C3=C2CC(C)(C)CC3=O)cc(OC)c1OC (stereo not given) | 10 | 70 | 50 | 80 |  | 25
COc1cc(N2C(N)=C(C#N)C(c3c(OC)ccc4ccccc34)C3=C2CC(C)(C)CC3=O)cc(OC)c1OC (stereo not given) | 0 | 10 | 5 | 30 | Not Active | 
COc1cc(N2C(N)=C(C#N)C(c3ccccc3Cl)C3=C2CC(C)(C)CC3=O)cc(OC)c1OC (stereo not given) | 10 | 20 | 15 | 20 | Not Active | 
CCOc1cc(C2C(C#N)=C(N)N(c3cc(OC)c(OC)c(OC)c3)C3=C2C(=O)CC(C)(C)C3)ccc1O (stereo not given) | 2 | 40 | 10 | 45 | Not Active | 
COc1cc(N2C(N)=C(C#N)C(c3ccc(Cl)cc3Cl)C3=C2CC(C)(C)CC3=O)cc(OC)c1OC (stereo not given) | 20 | 95 | 55 | 100 |  | 94.7
COc1cc(N2C(N)=C(C#N)C(c3ccc(OC)c4ccccc34)C3=C2CC(C)(C)CC3=O)cc(OC)c1OC (stereo not given) | 10 | 40 | 30 | 40 | Not Active | 
